Test: Diffusion coefficient of His-tagged FtsAs and His-SUMO on Tris-NTA membranes (FRAP)
Protocol: To study colocalization of His-tagged variants of FtsA, 0.5–1 µM of Cy5 labelled His-tagged FtsAs were added to the chamber, incubated for 20 min and washed 6x with reaction buffer. […] To control the density of membrane-bound FtsA, SUVs without and with Tris-NTA lipids were mixed to obtain the respective Tris-NTA concentrations. To perform FRET/FRAP experiments, equimolar concentrations of Cy3 and Cy5 labelled His-tagged FtsAs (total 0.5–1 µM) or His-SUMO-Cys were added to a chamber and treated as above. […] FRAP experiments were performed as described before.
Bleaching the acceptor dye leads to an increase in the donor intensity, which can be used to quantify the Foerster Resonance energy transfer (FRET)[48]. FRET efficiency was quantified with E%=Ipost/Ipost+Ipre⋅100 , where Ipost is the intensity of the […] and Ipre is the […]. […] To extract the contribution of both processes, we adjusted a routine recently published by Gerganova et al.[33]. In short, the code provides the contribution of both modes of recovery by analysing the shape of the fluorescence recovery profile. […] Contribution of diffusion leads to a change of the slope of the outer borders of the bleached region (S4h right). Thus, by measuring the change of the slope of the border recovery, diffusion and simple on/off binding can be distinguished. We developed “FRAPdiff”, a graphical user interface, which uses the original fit routine by David Rutkowski. It can be used directly on.tiff movies with annotated bleach regions as ImageJ ROIs. In addition, we added optional bleach correction, user selectable projection axis (x or y), and optional mirroring of the recovery profiles, if bleaching was not symmetric. The original fit routine for estimating the recovery and diffusion dynamics can be found at https://github.com/davidmrutkowski/1DReflectingDiffusion. FRAPdiff is available at 10.5281/zenodo.6400639[49] under the GPLv3 open-source license.

FtsA-His6: FtsA WT (1-405) with amphipathic helix replaced by C-terminal His-tag
Diffusion Coefficient (0.1% Tris NTA, + FtsZ, mean (n: WT 2, R286W 3)): 0.07 µm2/s | Diffusion Coefficient (0.1% Tris NTA, + FtsZ, replicate Exp1): 0.14 µm2/s | Diffusion Coefficient (0.1% Tris NTA, + FtsZ, replicate Exp2): 0.000245 µm2/s | Diffusion Coefficient (0.1% Tris NTA, without FtsZ, replicate Exp1): 0.35 µm2/s | Diffusion Coefficient (0.1% Tris NTA, without FtsZ, replicate Exp2): 0.29 µm2/s | Diffusion Coefficient (0.4% Tris NTA, + FtsZ, mean (n: WT 2, R286W 3)): 0.0146 µm2/s | Diffusion Coefficient (0.4% Tris NTA, + FtsZ, replicate Exp1): 0.0175 µm2/s | Diffusion Coefficient (0.4% Tris NTA, + FtsZ, replicate Exp2): 0.0117 µm2/s | Diffusion Coefficient (0.4% Tris NTA, without FtsZ, replicate Exp1): 0.11 µm2/s | Diffusion Coefficient (0.4% Tris NTA, without FtsZ, replicate Exp2): 0.10 µm2/s | Diffusion Coefficient (0.6% Tris NTA, + FtsZ, mean (n: WT 5, R286W 5)): 0.0113 µm2/s | Diffusion Coefficient (0.6% Tris NTA, + FtsZ, replicate Exp1): 0.02 µm2/s | Diffusion Coefficient (0.6% Tris NTA, + FtsZ, replicate Exp2): 0.01 µm2/s | Diffusion Coefficient (0.6% Tris NTA, + FtsZ, replicate Exp3): 0.0152 µm2/s | Diffusion Coefficient (0.6% Tris NTA, + FtsZ, replicate Exp4): 0.00625 µm2/s | Diffusion Coefficient (0.6% Tris NTA, + FtsZ, replicate Exp5): 0.00411 µm2/s | Diffusion Coefficient (0.6% Tris NTA, without FtsZ, mean (n: WT 4, R286W 5, SUMO 4)): 0.03 µm2/s | Diffusion Coefficient (0.6% Tris NTA, without FtsZ, replicate Exp1): 0.0256 µm2/s | Diffusion Coefficient (0.6% Tris NTA, without FtsZ, replicate Exp2): 0.00783 µm2/s | Diffusion Coefficient (0.6% Tris NTA, without FtsZ, replicate Exp3): 0.0422 µm2/s | Diffusion Coefficient (0.6% Tris NTA, without FtsZ, replicate Exp4): 0.046 µm2/s | Diffusion Coefficient (0.8% Tris NTA, + FtsZ, mean): 0.012 µm2/s | Diffusion Coefficient (0.8% Tris NTA, + FtsZ, replicate Exp1): 0.00842 µm2/s | Diffusion Coefficient (0.8% Tris NTA, + FtsZ, replicate Exp2): 0.00437 µm2/s | Diffusion Coefficient (0.8% Tris NTA, + FtsZ, replicate Exp3): 0.00795 µm2/s | Diffusion Coefficient (0.8% Tris NTA, + FtsZ, replicate Exp4): 0.03 µm2/s | Diffusion Coefficient (0.8% Tris NTA, + FtsZ, replicate Exp5): 0.00835 µm2/s | Diffusion Coefficient (0.8% Tris NTA, without FtsZ, mean): 0.0135 µm2/s | Diffusion Coefficient (0.8% Tris NTA, without FtsZ, replicate Exp1): 0.0179 µm2/s | Diffusion Coefficient (0.8% Tris NTA, without FtsZ, replicate Exp3): 8.35e-15 µm2/s | Diffusion Coefficient (0.8% Tris NTA, without FtsZ, replicate Exp4): 0.0124 µm2/s | Diffusion Coefficient (0.8% Tris NTA, without FtsZ, replicate Exp5): 0.0374 µm2/s | Diffusion Coefficient (1% Tris NTA, + FtsZ, mean): 0.02 µm2/s | Diffusion Coefficient (1% Tris NTA, + FtsZ, replicate Exp1): 0.0115 µm2/s | Diffusion Coefficient (1% Tris NTA, + FtsZ, replicate Exp2): 0.00322 µm2/s | Diffusion Coefficient (1% Tris NTA, + FtsZ, replicate Exp3): 0.00542 µm2/s | Diffusion Coefficient (1% Tris NTA, + FtsZ, replicate Exp4): 0.00574 µm2/s | Diffusion Coefficient (1% Tris NTA, + FtsZ, replicate Exp5): 0.07 µm2/s | Diffusion Coefficient (1% Tris NTA, + FtsZ, replicate Exp6): 0.0435 µm2/s | Diffusion Coefficient (1% Tris NTA, + FtsZ, replicate Exp7): 0.000437 µm2/s | Diffusion Coefficient (1% Tris NTA, without FtsZ, mean): 0.0254 µm2/s | Diffusion Coefficient (1% Tris NTA, without FtsZ, replicate Exp1): 0.0438 µm2/s | Diffusion Coefficient (1% Tris NTA, without FtsZ, replicate Exp2): 0.000108 µm2/s | Diffusion Coefficient (1% Tris NTA, without FtsZ, replicate Exp3): 6.32e-6 µm2/s | Diffusion Coefficient (1% Tris NTA, without FtsZ, replicate Exp4): 0.06 µm2/s | Diffusion Coefficient (Tris 0.10 %, + FtsZ): 0.07 µm2/s | Diffusion Coefficient (Tris 0.10 %, without FtsZ): 0.32 µm2/s | Diffusion Coefficient (Tris 0.40 %, + FtsZ): 0.0146 µm2/s | Diffusion Coefficient (Tris 0.40 %, without FtsZ): 0.11 µm2/s | Diffusion Coefficient (Tris 0.60 %, + FtsZ): 0.0113 µm2/s | Diffusion Coefficient (Tris 0.60 %, without FtsZ): 0.03 µm2/s | Diffusion Coefficient (Tris 0.80 %, + FtsZ): 0.012 µm2/s | Diffusion Coefficient (Tris 0.80 %, without FtsZ): 0.0135 µm2/s | Diffusion Coefficient (Tris 1.00 %, + FtsZ): 0.02 µm2/s | Diffusion Coefficient (Tris 1.00 %, without FtsZ): 0.0254 µm2/s | Diffusion Coefficient (Tris 2.00 %, + FtsZ): 0.000263 µm2/s | Diffusion Coefficient (Tris 2.00 %, without FtsZ): 0.00604 µm2/s | Diffusion Coefficient ([…] Tris NTA, + FtsZ, mean (n: WT 2, R286W 3)): 0.03 µm2/s | Diffusion Coefficient ([…] Tris NTA, + FtsZ, replicate Exp1): 0.05 µm2/s | Diffusion Coefficient ([…] Tris NTA, + FtsZ, replicate Exp2): 0.0108 µm2/s | Diffusion Coefficient ([…] Tris NTA, without FtsZ, replicate Exp1): 0.11 µm2/s | Diffusion Coefficient ([…] Tris NTA, without FtsZ, replicate Exp2): 0.14 µm2/s | Diffusion Coefficient ([…] Tris-NTA, + N (FtsNcyto), mean): 1.72E-05 µm2/s | Diffusion Coefficient ([…] Tris-NTA, + N/Z, Exp. 1): 1.69E-05 µm2/s | Diffusion Coefficient ([…] Tris-NTA, + N/Z, Exp. 2): 1.87E-06 µm2/s | Diffusion Coefficient ([…] Tris-NTA, + N/Z, Exp. 3): 5.64E-12 µm2/s | Diffusion Coefficient ([…] Tris-NTA, + N/Z, mean): 6.26E-06 µm2/s | Diffusion Coefficient ([…] Tris-NTA, + N, Exp. 1): 1.23E-05 µm2/s | Diffusion Coefficient ([…] Tris-NTA, + N, Exp. 2): 2.69E-05 µm2/s | Diffusion Coefficient ([…] Tris-NTA, + N, Exp. 3): 1.23E-05 µm2/s | Diffusion Coefficient ([…] Tris-NTA, + Z (FtsZ), mean): 1.67E-03 µm2/s | Diffusion Coefficient ([…] Tris-NTA, + Z, Exp. 1): 3.64E-05 µm2/s | Diffusion Coefficient ([…] Tris-NTA, + Z, Exp. 2): 4.36E-03 µm2/s | Diffusion Coefficient ([…] Tris-NTA, + Z, Exp. 3): 1.74E-03 µm2/s | Diffusion Coefficient ([…] Tris-NTA, + Z, Exp. 4): 5.51E-04 µm2/s | Diffusion Coefficient ([…] Tris-NTA, alone, Exp. 1): 1.17E-02 µm2/s | Diffusion Coefficient ([…] Tris-NTA, alone, Exp. 2): 2.57E-05 µm2/s | Diffusion Coefficient ([…] Tris-NTA, alone, Exp. 3): 3.15E-03 µm2/s | Diffusion Coefficient ([…] Tris-NTA, alone, Exp. 4): 7.92E-04 µm2/s | Diffusion Coefficient ([…] Tris-NTA, alone, mean): 3.92E-03 µm2/s

Reference: paper PMC9098913, “In vitro reconstitution of Escherichia coli divisome activation” (Nature Communications, 2022)
